Measurements reported in patent publication US7109341B2, “Therapeutic amides” (Wayne State University, priority 2002, dated 2006).

How the values were obtained:
[1] = test system: Mammary Adenocarcinoma 17/ADR; assay: Evaluation against early stage Mammary Adenocarcinoma 17/ADR, C3H/He females (Table 3); format: in vivo; details: for % Body Wt Loss at Nadir / % T/C mass / Day of Nadir / Drug Deaths / Growth Delay / Log Kill / Median Tumor Mass on Day 9 (Range) / Tumor Free day-21 / Activity Rating: PO
[2] = test system: Pancreatic Ductal Adenocarcinoma 03; assay: Evaluation against early stage Pancreatic Ductal Adenocarcinoma 03 in female BDF1 mice (Table 4); format: in vivo, mouse
Description: The higher dose requirement for compound 14e may be a disadvantage over compound 11b (Cage 14).

[3] = Cage 5, 145 mg/kg/inj QD-1–3 and 7–9, total 870 mg/kg
[4] = Cage 6, 90 mg/kg/inj QD-1–3 and 7–9, total 540 mg/kg
[5] = Cage 7, 55.8 mg/kg/inj QD-1–3 and 7–9, total 334.8 mg/kg
[6] = Cage 8, 34.6 mg/kg/inj QD-1–3, 145 mg/kg/inj QD-7–9, total 538.8 mg/kg
[7] = Cage 14, IV, 48 mg/kg/inj QD 3–9, total 336 mg/kg
[8] = IV, short, dose-intense schedule BID-1–3, 162 mg/kg total dose
[9] = Cage 2, PO, 120 mg/kg/inj 2×/day days 3–9, total 1680 mg/kg
[10] = Cage 3, PO, 60 mg/kg/inj 2×/day days 3–9, total 840 mg/kg
[11] = Cage 4, PO, 30 mg/kg/inj 2×/day days 3–9, total 420 mg/kg

Structure (SMILES): COc1c(Cl)ccc2ncc(Oc3ccc(OC(C)C(=O)N(C)C)cc3)nc12 (stereo not shown) [Compound 14c]
- % Body Wt Loss at Nadir [1, 3]: −5.8%
- % T/C mass [1, 3]: 20%
- Day of Nadir [1, 3]: 9 days
- Drug Deaths [1, 3]: 0/5
- Growth Delay [1, 3]: 5.5 days
- Log Kill [1, 3]: 1.5
- Median Tumor Mass on Day 9 (Range) [1, 3]: 243
- Tumor Free day-21 [1, 3]: 0/5
- % Body Wt Loss at Nadir [1, 4]: +1.4%
- % T/C mass [1, 4]: 31%
- Activity Rating [1, 4]: ++ (1.3–1.9)
- Day of Nadir [1, 4]: 9 days
- Drug Deaths [1, 4]: 0/5
- Growth Delay [1, 4]: 5.0 days
- Log Kill [1, 4]: 1.4
- Median Tumor Mass on Day 9 (Range) [1, 4]: 369
- Tumor Free day-21 [1, 4]: 0/5
- % Body Wt Loss at Nadir [1, 5]: +0.0%
- % T/C mass [1, 5]: 31%
- Activity Rating [1, 5]: + (0.7–1.2)
- Day of Nadir [1, 5]: 9 days
- Drug Deaths [1, 5]: 0/5
- Growth Delay [1, 5]: 3.5 days
- Log Kill [1, 5]: 1.0
- Median Tumor Mass on Day 9 (Range) [1, 5]: 368
- Tumor Free day-21 [1, 5]: 0/5
- % Body Wt Loss at Nadir [1, 6]: −1.4%
- % T/C mass [1, 6]: 55%
- Activity Rating [1, 6]: + (0.7–1.2)
- Day of Nadir [1, 6]: 11 days
- Drug Deaths [1, 6]: 0/5
- Growth Delay [1, 6]: 3.3 days
- Log Kill [1, 6]: 0.9
- Median Tumor Mass on Day 9 (Range) [1, 6]: 660
- Tumor Free day-21 [1, 6]: 0/5

Structure (SMILES): CC(Oc1ccc(Oc2ccc3ccc(Cl)cc3n2)cc1)C(=O)O (stereo not shown) [Compound 11b]
- % Body Wt Loss at Nadir [2, 7]: −8.9%
- % T/C mass [2, 7]: 0%
- Activity Rating [2, 7]: +++ (2.0–2.8)
- Day of Nadir [2, 7]: 11 days
- Drug Deaths [2, 7]: 0/5
- Growth Delay [2, 7]: 17.5 days
- Log Kill [2, 7]: 2.6
- Median Tumor Mass on Day 14 (Range) [2, 7]: 0
- Tumor Free day-37 [2, 7]: 0/5
- day of full body weight recovery [2, 7]: ~15 days

Structure (SMILES): COc1c(Cl)ccc2ccc(Oc3ccc(OC(C)C(=O)O)cc3)nc12 (stereo not shown) [Compound 13a, reference compound]
- T/C [1, 8]: 7%
- log kill [1, 8]: 1.5

Structure (SMILES): CC(Oc1ccc(Oc2ccc3ccc(Cl)cc3n2)cc1)C(=O)N(C)C (stereo not shown) [Compound 14e, 2-{4-((7-Chloro-2-quinolinyl)oxy)phenoxy}propiondimethylamide]
- % Body Wt Loss at Nadir [2, 9]: +4.3%
- % T/C mass [2, 9]: 8.3%
- Day of Nadir [2, 9]: 9 days
- Drug Deaths [2, 9]: 0/5
- Growth Delay [2, 9]: 16.5 days
- Log Kill [2, 9]: 2.5
- Median Tumor Mass on Day 14 (Range) [2, 9]: 126
- Tumor Free day-37 [2, 9]: 0/5
- toxicity observations [2, 9]: no evident toxicity
- % Body Wt Loss at Nadir [2, 10]: +3.3%
- % T/C mass [2, 10]: 15%
- Activity Rating [2, 10]: +++ (2.0–2.8)
- Day of Nadir [2, 10]: 10 days
- Drug Deaths [2, 10]: 0/5
- Growth Delay [2, 10]: 14.5 days
- Log Kill [2, 10]: 2.2
- Median Tumor Mass on Day 14 (Range) [2, 10]: 234
- Tumor Free day-37 [2, 10]: 0/5
- % Body Wt Loss at Nadir [2, 11]: 0%
- % T/C mass [2, 11]: 37%
- Day of Nadir [2, 11]: 9 days
- Drug Deaths [2, 11]: 0/5
- Growth Delay [2, 11]: 3.5 days
- Log Kill [2, 11]: 0.5
- Median Tumor Mass on Day 14 (Range) [2, 11]: 567
- Tumor Free day-37 [2, 11]: 0/5
